Assay results reported in patent US12721537B2, “System and method for measuring blood flow velocity on a microfluidic chip” (CASE WESTERN RESERVE UNIVERSITY, priority 2020, dated 2026).

Tests used:
whole blood = conditions: sodium citrate whole blood recalcified to 100 mM CaCl2, constant inlet pressure 20 mBar, PIV
Protocol: The whole blood sample for this example was drawn into a 3.2% sodium citrate containing vacutainer from a single healthy donor under an Institutional review board-approved protocol. The blood sample was stored at 4° C. upon collection and was processed within 24 h. […] Prior to the experiment, the whole blood sample was recalcified with the stock solution to obtain a final concentration of 100 mM CaCl2. […] The control experiment was performed by mixing the whole blood sample with PBS. Thereafter, the mixed blood sample was immediately injected into the microfluidic channel at a constant inlet pressure of 20 mBar by means of a Flow-EZ pressure control unit (Fluigent Inc., North Chelmsford, MA), as shown in FIG. 2. The constant supply pressure implies that the flow rate is reduced as the blood coagulates. The maximum initial shear rate was approximately 10 s^−1, and the shear rate reduced to zero as the flow slowed and eventually stopped due to microchannel blockage as coagulation occurred. The microfluidic channel was placed on an inverted microscope (Olympus IX83), and a video was recorded simultaneously under 4× magnification using a high-resolution camera (EXi Blue EXI-BLU-R-F-M-14-C) at 10 frames per second as soon as the flow was started. The field of view was centered on the microfluidic channel, and one pixel in the images corresponds to 1.58 μm. […]

citrate whole blood = assay: Thrombin-induced thrombus formation in a microchannel; type: cell-based; conditions: citrate whole blood reconstituted with 16.7 μM calcium chloride only
From the text: The influence of clotting disorders and therapies can be assessed in a case study using elevated levels of thrombin to promote coagulation. […] It is hypothesized that elevated levels of thrombin will produce distinctive, quantifiable effects on the evolution of the blood flow and the associated formation and growth of thrombi, and these experiments will allow us to assess the ability of our model to identify those effects. Additionally, the effect of heparin, a common anticoagulant therapy, on the blood flow will be evaluated by adding heparin into the blood samples at appropriate doses.

[Ca+2].[Cl-].[Cl-] [CaCl2, calcium chloride]
clotting time (dramatic drop in mean blood flow velocity) (whole blood): ~220 s
blood flow in microchannel (citrate whole blood): flows uniformly
thrombus formation in microchannel (citrate whole blood): No thrombus formation
